Data: patent US20250313579A1, “LIGAND COMPOUNDS COMPRISING A CHELATING GROUP AS A BRIDGING GROUP” (Technische Universität München, priority 2021, published 2025)

Assay: Octanol-water distribution coefficient (LogDpH=7.4)
Format: physicochemical
Conditions: n-octanol/PBS pH 7.4; radioactive ligand
Method: This distribution coefficient may be determined by measuring the equilibrium distribution, e.g. at room temperature (20° C.o) of a compound in accordance with the invention in a two-phase system containing equal amounts, such as 1.00 ml each, of n-octanol and PBS (pH=7.4), and calculating the logD7.4 value as log 10 (concentration in octanol/concentration in PBS). Instead of the (absolute) concentration of the compound in accordance with the invention in the octanol and the PBS, a parameter which is proportional to the concentration of the compound in each phase may also be used for the calculation, such as the activity of radiation if the compound comprises a radioactive moiety, e.g. a radioactive chelate.
The radioactive ligand of interest (0.7-1.0 MBq) is given to a mixture of n-octanol and PBS (1 ml, 1/1; v/V) in a 1.5 ml reaction tube and shaken vigorously for 3 min. The resulting mixture is centrifuged (9000 rpm, 5 min, RT), and 100 μl of the octanol and PBS phases isolated separately.
Quantification occurs by the determination of the activity of each isolated probe in a γ-counter. The LogDpH=7.4 value is determined by the following equation:
The determination of the final LogDpH=7.4 value is executed in octets. The mean value and standard deviation are determined after the removal of outlying values.

| Structure (SMILES) | LogDpH=7.4 |
| --- | --- |
| C[C@@H](O)[C@H](NC(=O)[C@@H]1CSSC[C@H](NC(=O)[C@@H](Cc2ccccc2)NC(=O)CN2CCN3CCN(CC(=O)NCCCC[C@@H](NC(=O)[C@@H](CCC(=O)O)NC(=O)[C@@H](CNC(=O)C[N+](C)(C)Cc4ccc([Si](F)(C(C)(C)C)C(C)(C)C)cc4)NC(=O)[C@@H](CCC(=O)O)NC(=O)[C@@H](CCC(=O)O)NC(=O)[C@H](N)CCC(=O)O)C(=O)O)CCN(CC2)CC(=O)[O][Ga+][O]C(=O)C3)C(=O)N[C@@H](Cc2ccc(O)cc2)C(=O)N[C@H](Cc2c[nH]c3ccccc23)C(=O)N[C@@H](CCCCN)C(=O)N[C@@H]([C@@H](C)O)C(=O)N1)C(=O)O [[Ga]08, H-D-Glu-D-Glu-D-Glu-D-Dap(N-SiFAlin-N,N-Me2-Gly)-D-Glu-D-Lys(trans-[^natGa] DOTA-TATE)-OH] | −2.07 ± 0.04 |
| C[C@@H](O)[C@H](NC(=O)[C@@H]1CSSC[C@H](NC(=O)[C@@H](Cc2ccccc2)NC(=O)CN2CCN(CC(=O)O)CCN(CC(=O)NCCCC[C@@H](NC(=O)[C@@H](CNC(=O)C[N+](C)(C)Cc3ccc([Si](F)(C(C)(C)C)C(C)(C)C)cc3)NC(=O)[C@@H](CCC(=O)O)NC(=O)[C@@H](CCC(=O)O)NC(=O)[C@@H](CCC(=O)O)NC(=O)[C@]3(O)C[C@@H](O)[C@@H](O)[C@H](O)C3)C(=O)O)CCN(CC(=O)O)CC2)C(=O)N[C@@H](Cc2ccc(O)cc2)C(=O)N[C@H](Cc2c[nH]c3ccccc23)C(=O)N[C@@H](CCCCN)C(=O)N[C@@H]([C@@H](C)O)C(=O)N1)C(=O)O [[Ga]09, D-(−)-quinic acid-D-Glu-D-Glu-D-Glu-D-Dap(N-SiFAlin-N,N-Me2-Gly)-D-Lys(trans-[^natGa] DOTA-TATE)-OH, metal not drawn] | −2.28 ± 0.04 |
| C[C@@H](O)[C@H](NC(=O)[C@@H]1CSSC[C@H](NC(=O)[C@@H](Cc2ccccc2)NC(=O)CN2CCN3CCN(CC(=O)NCCCC[C@@H](NC(=O)[C@@H](CNC(=O)C[N+](C)(C)Cc4ccc([Si](F)(C(C)(C)C)C(C)(C)C)cc4)NC(=O)[C@@H](CCCCN)NC(=O)[C@@H](CCC(=O)O)NC(=O)[C@H](N)CCC(=O)O)C(=O)O)CCN(CC2)CC(=O)[O][Ga+][O]C(=O)C3)C(=O)N[C@@H](Cc2ccc(O)cc2)C(=O)N[C@H](Cc2c[nH]c3ccccc23)C(=O)N[C@@H](CCCCN)C(=O)N[C@@H]([C@@H](C)O)C(=O)N1)C(=O)O [[Ga]06, H-D-Glu-D-Glu-D-Lys-D-Dap(N-SiFAlin-N, N-Me2-Gly)-D-Lys(trans-[^natGa] DOTA-TATE)-OH] | −2.28 ± 0.04 |
| C[C@@H](O)[C@H](NC(=O)[C@@H]1CSSC[C@H](NC(=O)[C@@H](Cc2ccccc2)NC(=O)CN2CCN(CC(=O)O)CCN(CC(=O)NCCCC[C@@H](NC(=O)[C@@H](CNC(=O)C[N+](C)(C)Cc3ccc([Si](F)(C(C)(C)C)C(C)(C)C)cc3)NC(=O)[C@@H](CCCNC(N)=O)NC(=O)[C@@H](CCCNC(N)=O)NC(=O)[C@H](N)CCCNC(N)=O)C(=O)O)CCN(CC(=O)O)CC2)C(=O)N[C@@H](Cc2ccc(O)cc2)C(=O)N[C@H](Cc2c[nH]c3ccccc23)C(=O)N[C@@H](CCCCN)C(=O)N[C@@H]([C@@H](C)O)C(=O)N1)C(=O)O [[Ga]03, H-D -Cit-D -Cit-D -Cit-D-Dap(N-SiFAlin-N,N-Me2-Gly)-D-Lys(trans-[na′Ga] DOTA-TATE)-OH] | −2.27 ± 0.04 |
| C[C@@H](O)[C@H](NC(=O)[C@@H]1CSSC[C@H](NC(=O)[C@@H](Cc2ccccc2)NC(=O)CN2CCN(CC(=O)O)CCN(CC(=O)NCCCC[C@@H](NC(=O)C[N+](C)(C)Cc3ccc([Si](F)(C(C)(C)C)C(C)(C)C)cc3)C(=O)O)CCN(CC(=O)O)CC2)C(=O)N[C@@H](Cc2ccc(O)cc2)C(=O)N[C@H](Cc2c[nH]c3ccccc23)C(=O)N[C@@H](CCCCN)C(=O)N[C@@H]([C@@H](C)O)C(=O)N1)C(=O)O [[Ga]01, N-SiFAlin-N,N-Me2-Gly-D-Lys(trans-[^natGa] DOTA-TATE)-OH, metal not drawn] | −1.19 ± 0.07 |
| C[C@@H](O)[C@H](NC(=O)[C@@H]1CSSC[C@H](NC(=O)[C@@H](Cc2ccccc2)NC(=O)CN2CCN3CCN(CC(=O)NCCCC[C@@H](NC(=O)[C@@H](CNC(=O)C[N+](C)(C)Cc4ccc([Si](F)(C(C)(C)C)C(C)(C)C)cc4)NC(=O)[C@@H](CCC(=O)O)NC(=O)[C@@H](CCC(=O)O)NC(=O)[C@H](N)CCC(=O)O)C(=O)O)CCN(CC2)CC(=O)[O][Ga+][O]C(=O)C3)C(=O)N[C@@H](Cc2ccc(O)cc2)C(=O)N[C@H](Cc2c[nH]c3ccccc23)C(=O)N[C@@H](CCCCN)C(=O)N[C@@H]([C@@H](C)O)C(=O)N1)C(=O)O [[Ga]07, H-D-Glu-D-Glu-D-Glu-D-Dap(N-SiFAlin-N,N-Me2-Gly)-D-Lys(trans-[^natGa] DOTA-TATE)-OH] | −2.30 ± 0.04 |
| C[C@@H](O)[C@H](NC(=O)[C@@H]1CSSC[C@H](NC(=O)[C@@H](Cc2ccccc2)NC(=O)CN2CCN3CCN(CC(=O)NCCCC[C@@H](NC(=O)[C@@H](CNC(=O)C[N+](C)(C)Cc4ccc([Si](F)(C(C)(C)C)C(C)(C)C)cc4)NC(=O)[C@@H](CN)NC(=O)[C@@H](CCC(=O)O)NC(=O)[C@H](N)CCC(=O)O)C(=O)O)CCN(CC2)CC(=O)[O][Ga+][O]C(=O)C3)C(=O)N[C@@H](Cc2ccc(O)cc2)C(=O)N[C@H](Cc2c[nH]c3ccccc23)C(=O)N[C@@H](CCCCN)C(=O)N[C@@H]([C@@H](C)O)C(=O)N1)C(=O)O [[Ga]05, H-D-Glu-D-Glu-D-Dap-D-Dap(N-SiFAlin-N,N-Me2-Gly)-D-Lys(trans-[^natGa] DOTA-TATE)-OH] | −2.12 ± 0.06 |
| C[C@@H](O)[C@H](NC(=O)[C@@H]1CSSC[C@H](NC(=O)[C@@H](Cc2ccccc2)NC(=O)CN2CCN(CC(=O)O)CCN(CC(=O)NCCCC[C@@H](NC(=O)[C@@H](CNC(=O)C[N+](C)(C)Cc3ccc([Si](F)(C(C)(C)C)C(C)(C)C)cc3)NC(=O)[C@@H](CCCNC(N)=O)NC(=O)[C@@H](CCCNC(N)=O)NC(=O)[C@H](N)CCC(=O)O)C(=O)O)CCN(CC(=O)O)CC2)C(=O)N[C@@H](Cc2ccc(O)cc2)C(=O)N[C@H](Cc2c[nH]c3ccccc23)C(=O)N[C@@H](CCCCN)C(=O)N[C@@H]([C@@H](C)O)C(=O)N1)C(=O)O [[Ga]04, H-D-Glu-D -Cit-D -Cit-D-Dap(N-SiFAlin-N,N-Mez-Gly)-D-Lys(trans-[^natGa] DOTA-TATE)-OH, metal not drawn] | −2.30 ± 0.03 |
| C[C@@H](O)[C@H](NC(=O)[C@@H]1CSSC[C@H](NC(=O)[C@@H](Cc2ccccc2)NC(=O)CN2CCN(CC(=O)O)CCN(CC(=O)NCCCC[C@@H](NC(=O)[C@@H](CNC(=O)C[N+](C)(C)Cc3ccc([Si](F)(C(C)(C)C)C(C)(C)C)cc3)NC(=O)[C@@H](CCCCN)NC(=O)[C@@H](CCC(=O)O)NC(=O)[C@H](N)CCC(=O)O)C(=O)O)CCN(CC(=O)O)CC2)C(=O)N[C@@H](Cc2ccc(O)cc2)C(=O)N[C@H](Cc2c[nH]c3ccccc23)C(=O)N[C@@H](CCCCN)C(=O)N[C@@H]([C@@H](C)O)C(=O)N1)C(=O)O [Compound 06, H-D-Glu-D-Glu-D-Lys-D-Dap(N-SiFAlin-N,N-Mez-Gly)-D-Lys(trans-DOTA-TATE)-OH] | −2.36 ± 0.03 |
| C[C@@H](O)[C@H](NC(=O)[C@@H]1CSSC[C@H](NC(=O)[C@@H](Cc2ccccc2)NC(=O)CN2CCN(CC(=O)O)CCN(CC(=O)NCCCC[C@@H](NC(=O)[C@@H](CNC(=O)C[N+](C)(C)Cc3ccc([Si](F)(C(C)(C)C)C(C)(C)C)cc3)NC(=O)[C@@H](CN)NC(=O)[C@@H](CCC(=O)O)NC(=O)[C@H](N)CCC(=O)O)C(=O)O)CCN(CC(=O)O)CC2)C(=O)N[C@@H](Cc2ccc(O)cc2)C(=O)N[C@H](Cc2c[nH]c3ccccc23)C(=O)N[C@@H](CCCCN)C(=O)N[C@@H]([C@@H](C)O)C(=O)N1)C(=O)O [Compound 05, H-D-Glu-D-Glu-D-Dap-D-Dap(N-SiFAlin-N,N-Mez-Gly)-D-Lys(trans-DOTA-TATE)-OH] | −1.96 ± 0.06 |
| C[C@@H](O)[C@H](NC(=O)[C@@H]1CSSC[C@H](NC(=O)[C@@H](Cc2ccccc2)NC(=O)CN2CCN3CCN(CC(=O)NC[C@@H](NC(=O)C[N+](C)(C)Cc4ccc([Si](F)(C(C)(C)C)C(C)(C)C)cc4)C(=O)O)CCN(CC2)CC(=O)[O][Ga+][O]C(=O)C3)C(=O)N[C@@H](Cc2ccc(O)cc2)C(=O)N[C@H](Cc2c[nH]c3ccccc23)C(=O)N[C@@H](CCCCN)C(=O)N[C@@H]([C@@H](C)O)C(=O)N1)C(=O)O [[Ga]02, N-SiFAlin-N, N-Me2-Gly-D-Dap(trans-[^natGa] DOTA-TATE)-OH] | −1.03 ± 0.04 |
